Blank lines part the entries; values can stand above or below the compound they belong to.
Key:
[1] = Effect of CD26 inhibitor on conversion of CAM-405 to CAM-212 by bovine serum; format: biochemical; details: 2.5% BS in PBS, 50 μM CAM-405
Method: (§1) CD26-catalysed CAM-405 conversion to CAM-212 was recorded in the absence or presence of the CD26 inhibitor diprotin A (FIG. 5). […] These observations point to CD26 as the main and predominant enzyme responsible in HS and BS to remove the dipeptide part from the lipophilic NAP-TSAO dipeptide nucleoside analogue.
(§2) All enzyme activity assays were performed in Eppendorf tubes on a heating block at 37° C. To each tube were added 32 μl CD26 (at a final concentration of 1.5 milliUnits) or 10 μl foetal bovine serum (BS) (final concentration: 2.5% BS in PBS; preheated at 56° C. for 30 min) or 10 μl human serum (HS) (final concentration: 2.5% HS in PBS), 40 μl of appropriate concentrations of inhibitor (Diprotin A) solution in PBS (for the exact concentrations, see the legend to FIG. 5), CAM-405 (the substrate of the reaction) at […] (final concentration) and PBS to reach a total volume of 400 μl. The pH of the reaction mixture was 7.5, which is virtually identical to the physiological pH of plasma. The reaction was started by the addition of the enzyme or serum and carried out at 37° C. After 5 hr, 100 μl reaction mixture was taken from the Eppendorf tube and added to 200 μl cold methanol to precipitate the proteins. After 10 min standing on ice, the contents of the tubes were centrifuged and the supernatants analysed by HPLC on a reverse phase column (RP-8, Merck Laboratories). […]

[2] = molecular target: T1, purified CD26 (Homo sapiens, UniProt P27487); assay: Effect of CD26 inhibitor on conversion of CAM-405 to CAM-212 by purified CD26; format: biochemical; details: CD26 1.5 mUnits, 50 μM CAM-405
T1 construct: made in house
Method: as §1, §2

[3] = Effect of CD26 inhibitor on conversion of CAM-405 to CAM-212 by human serum; format: biochemical; details: 2.5% HS in PBS, 50 μM CAM-405
Method: as §1, §2

[4] = Conversion of prodrugs to parent compound by human serum diluted in PBS; format: in vitro ADME
Method: (§3) Human and bovine serum were incubated for 3 hr, 6 hr and/or 24 hr at 37° C. in the presence of 50 μM CAM-405. The sera were diluted in PBS at a final concentration of 0.5, 1, 2.5 or 5%. […] The longer the incubation time, and the higher the serum concentration used, the faster the conversion of CAM-405 to CAM-212 occurred (FIG. 4). As also noted for CD26, HS- and BS-catalysed reaction slowed down in function of time, and was not linearly proportional with serum concentration (FIG. 4). These findings provide again evidence for a pronounced feed-back inhibition of dipeptidyl-peptidase activity in human and bovine serum by the released Val-Pro dipeptide. HS was more efficient in converting CAM-405 to CAM-212 than BS (FIG. 4). Since 1% HS is able to hydrolyse ˜20% of 50 μM CAM-405 within 3 hrs of incubation, it could be calculated that undiluted serum would have been able to convert this prodrug amount to its parent compound at a hundred fold higher speed, that is, within 1.8 min, provided that no feed-back inhibition would have occurred (as expected in the intact organism where release of Pro-Val would immediately result in disappearance from the plasma due to several mechanisms including organ uptake, renal excretion, etc.).
Only a very limited amount of NAP-TSAO (but not D-Pro-NAP-TSAO) had been detected (FIG. 6).
(§4) Ten percent BS or HS converted 40 to 70% of PI-2 to PI-1 in one hour (FIG. 10). Two percent BS and HS converted PI-2 to PI-1 by 8% and 25%, respectively. After 4 hrs, 35% and 95% of compound was hydrolyzed by BS and HS, respectively (FIG. 11).
(§5) The TSAO derivatives depicted in FIG. 1 can be synthesised as described below. GlyPro-pNA (GP-pNA), Diprotin A and Val-Pro were purchased from Sigma-Aldrich (Bornem, Belgium). CD26 was purified as described before [De Meester et al. J. Immunol. Methods (1996), 189: 99-105]. Foetal bovine serum (FBS) was obtained from Integro (Dieren, The Netherlands). Human serum represented a pooled serum that was derived from 10 healthy volunteers (blood donors). Human lymphocyte CEM cells were derived from the ATCC (Rockville, Md.).

[5] = molecular target: T1, purified CD26; assay: Conversion of peptide prodrugs to parent compound by purified CD26 (HPLC); format: biochemical; details: 50 μM, 5.7 mUnits purified CD26, 37° C.
[6] = molecular target: T1, purified CD26; assay: as above; format: biochemical
Method: To reveal whether CD26 recognizes such synthetic di/tripeptide derivatives of lipophilic nucleoside analogues as a substrate, 50 μM CAM-405 or CAM-431 was exposed to 5.7 mUnits of purified CD26, and the conversion of CAM-405 or CAM-431 to respectively CAM-212 or CAM-403 (Val-NAP-TSAO) was recorded in function of incubation time by HPLC analysis. […] Within the first 10 min of the reaction, at least 20% of CAM-405 had been converted to CAM-212, fifty percent of the TSAO dipeptide derivative was converted to CAM-212 within 30 min of the reaction and ˜67% of CAM-405 was hydrolyse after 60 min. Thus, the reaction rate started already to slow down after the first 10 min of drug exposure (FIG. 2). Most likely, the release of the reaction product Val-Pro dose-dependently feed-back inhibited the CD26-catalysed dipeptidyl-peptidase reaction. […] Thus, in the presence of 50 μM CAM-405, hydrolysis of 50% of CAM-405 to CAM-212 results in the appearance of 25 μM Val-Pro, that is a concentration that (feed-back) inhibits the CD26 reaction by ˜50%. These findings explain why the CD26-catalysed reaction levels-off shortly after the start of the exposure of the drug to CD26. […] Thus, a further level of modulation of the rate of prodrug release can be introduced by choosing a dipeptide moiety that competes for the active site of CD26, until the dipeptide has diffused from the tissue wherein CD26 is present. The inhibitory activity of any dipeptide can be evaluated by the above mentioned assay.
The conversion rate in function of time is given in Table 1 for NAP-TSAO-dipeptides where the dipeptide consists of: Val-Pro, Val-D-Pro, Asp-Pro, Lys-Pro, Tyr-Pro, Gly-Pro, Val-4-hydroxyPro, Gly-3,4-dihydroxyPro, but also Val-Gly, Val-Ala, Val-Leu and Val-Phe. It is clear that the conversion rate to the parent NAP-TSAO differs depending the nature of the dipeptide. Also, when the terminal amine of the dipeptide has been blocked by a lipophilic group (i.e. methyl, Z or Fmoc), the prodrug looses measurable substrate activity for CD26.
The conversion rate in function of time is given in Table 2 for tetrapeptide NAP-TSAO compounds where the tetrapeptide consists of: Val-Pro-Val-Pro [SEQ ID no:6] (CAM 467), Val-Ala-Val-Pro [SEQ ID no:7] (CAM 473) or Lys-Pro-Asp-Pro [SEQ ID no:8] (CAM 477). […] Only traces of dipeptide prodrug (CAM 405) is seen as intermediate in the conversion of the tetrapeptide CAM 473 to NAP-TSAO.
as §2, with “Laboratories). CAM-405 was separated from CAM-212 (the product of the reaction) by a gradient of 50 mM sodium phosphate+5 mM heptane sulfonic acid pH 3.2 (Buffer A) and acetonitrile (Buffer B) as follows: Buffer A: 98%+2% Buffer B, 2 min; linear gradient to 20% Buffer.” for “Laboratories).”

[7] = Conversion of prodrugs to parent compound by bovine serum diluted in PBS; format: in vitro ADME; details: 50 μM; 0.5-5% BS in PBS; 3, 6, 24 hr; 37° C.
Method: as §3, §4, §5

[8] = tested on: T-lymphocytic CEM cell suspensions; assay: Conversion of Val-Pro-NAP-TSAO to NAP-TSAO by CEM cell suspensions; format: cell-based, human; details: ten million CEM cells in 200 μl PBS; 3 hrs; 37° C.
Method: The conversion of Val-Pro-NAP-TSAO (CAM-405) to NAP-TSAO (CAM-212) also efficiently occurred by carefully washed T-lymphocytic CEM cell suspensions in PBS. Ten million CEM cells suspended in 200 μl PBS hydrolysed the Val-Pro moiety from CAM-405 by 65% within 3 hrs of incubation at 37° C. This amount of hydrolysis was found both in the PBS supernatant and in the CEM cell extracts. Presumably, CD26 present in the cell membrane of CEM cells had cleaved-off the Val-Pro from CAM-405 after which both truncated and intact prodrug had been taken up by the lymphocytic cells to an equal extent.
as §5

T1 sequence (P27487 whole entry): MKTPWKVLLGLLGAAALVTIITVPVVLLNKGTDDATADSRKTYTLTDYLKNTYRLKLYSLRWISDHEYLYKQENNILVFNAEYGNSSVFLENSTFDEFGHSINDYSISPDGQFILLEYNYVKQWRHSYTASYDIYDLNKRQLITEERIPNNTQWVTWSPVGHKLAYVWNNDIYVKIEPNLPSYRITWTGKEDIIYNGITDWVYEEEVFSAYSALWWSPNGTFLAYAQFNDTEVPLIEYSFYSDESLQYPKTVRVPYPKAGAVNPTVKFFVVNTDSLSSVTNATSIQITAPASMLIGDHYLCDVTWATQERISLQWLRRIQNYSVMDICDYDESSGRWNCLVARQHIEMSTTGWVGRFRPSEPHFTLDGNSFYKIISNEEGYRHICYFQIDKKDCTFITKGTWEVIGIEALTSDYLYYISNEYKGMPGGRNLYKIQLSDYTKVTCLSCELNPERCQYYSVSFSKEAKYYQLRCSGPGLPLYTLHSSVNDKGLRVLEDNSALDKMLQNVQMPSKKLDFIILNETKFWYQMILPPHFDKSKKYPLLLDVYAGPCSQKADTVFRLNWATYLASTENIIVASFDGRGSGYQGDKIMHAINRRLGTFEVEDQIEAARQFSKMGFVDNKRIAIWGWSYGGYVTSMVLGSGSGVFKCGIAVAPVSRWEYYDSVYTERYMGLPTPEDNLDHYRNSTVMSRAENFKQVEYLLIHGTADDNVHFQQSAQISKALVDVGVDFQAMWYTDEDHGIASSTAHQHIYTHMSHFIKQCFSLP

Suppression of conversion of CAM-405 to CAM-212 by purified CD26 at 100 μM inhibitor ([2]; 100 μM): > 50% | Prevention of conversion of CAM-405 to CAM-212 by purified CD26 at 1000 μM inhibitor ([2]; 1000 μM): nearly complete prevention
Compound: Diprotin A
Suppression of conversion of CAM-405 to CAM-212 by BS at 100 μM inhibitor ([1]; 100 μM): > 50% | Prevention of conversion of CAM-405 to CAM-212 in BS at 1000 μM inhibitor ([1]; 1000 μM): nearly complete prevention | Suppression of conversion of CAM-405 to CAM-212 by HS at 100 μM inhibitor ([3]; 100 μM): > 50% | Prevention of conversion of CAM-405 to CAM-212 in HS at 1000 μM inhibitor ([3]; 1000 μM): nearly complete prevention

Calculated time for undiluted serum to convert this prodrug amount to parent compound ([4]; 10 μM, extrapolated from 1% human serum): less than 1.8 min | Conversion of CAM-405 to CAM-212 by human serum, in words ([4]; 50 μM, 0.5-5% HS in PBS, 3, 6, 24 hr, 37° C.): efficiently converted | Hydrolysis of CAM-405 by 1% human serum within 3 hrs ([4]; 50 μM, 1% HS in PBS, 3 hrs, 37° C.): ~20% | Calculated time for undiluted serum to convert this prodrug amount to parent compound ([4]; undiluted human serum, extrapolated, provided no feed-back inhibition): ≤ 1.8 min | Hydrolysis of CAM-405, after 60 min [5]: ~67% | Conversion of CAM-405 to CAM-212, first 10 min ([6]; 50 μM, 5.7 mUnits purified CD26, 37° C., 10 min): at least 20% | Conversion of CAM-405 to CAM-212, within 30 min ([6]; 50 μM, 5.7 mUnits purified CD26, 37° C., 30 min): fifty | Conversion % to parent compound by purified CD26, 1 h ([6]; Table 1, purified CD26 1.5 mUnits, 1 h): 37% | Conversion % to parent compound by purified CD26, 4 h ([6]; Table 1, purified CD26 1.5 mUnits, 4 h): 62% | Conversion % to parent compound by purified CD26, 24 h ([6]; Table 1, purified CD26 1.5 mUnits, 24 h): 61% | % conversion to parent compound by purified CD26, 1 h ([6]; Table 2, purified CD26 1.5 mUnits, 1 h): 37% | % conversion to parent compound by purified CD26, 4 h ([6]; Table 2, purified CD26 1.5 mUnits, 4 h): 62% | % conversion to parent compound by purified CD26, 24 h ([6]; Table 2, purified CD26 1.5 mUnits, 24 h): 61% | Conversion of CAM-405 to CAM-212 by bovine serum, in words [7]: efficiently converted
Compound: Cc1cn(C2OC(CO[Si](C)(C)C(C)(C)C)C3(OS(=O)(=O)C=C3N)C2O[Si](C)(C)C(C)(C)C)c(=O)n(CCCNC(=O)[C@@H]2CCCN2C(=O)[C@@H](N)C(C)C)c1=O (stereo partly drawn) [CAM-405, H-Val-Pro-NAP-TSAO]
Hydrolysis of the Val-Pro moiety by CEM cells [8]: 65%

— patent US8236756B2, “Prodrugs cleavable by CD26” (Consejo Superior de Investigaciones Clentificas (CSIC), priority 2003, dated 2012)
